US11447500B2, “Thienopyridine derivatives and pharmaceutical composition comprising same” (WELLMARKER BIO CO., LTD., priority 2018, dated 2022)

What was measured:
[1] = tested on: HT29 cells; experiment: Cytotoxicity MTS assay, HT29; type: cell-based; settings: Homo sapiens, HT-29, 72 hours
Experimental: (§1) In order to confirm the specific cytotoxicity of the drugs, the cultured cells were treated with 0.05% trypsin/EDTA (0.5% trypsin EDTA (10×), Product No.: 15400-054, GIBCO) to detach them from the culture dish, and 3,000 cells (KM12C) or 2,000 cells (HT29, Colo 320 HSR) were dispensed into each well.
(§2) After 24 hours, sample compounds were dissolved in DMSO (Product No.: D8418-250ML, SIGMA) to make 10 mM stock solutions. As the sample compounds, the compounds synthesized in the examples of the present invention and the compounds of the comparative examples were used.
(§3) The cells were treated with the sample compound dilutions, and cultured in a 5% CO2 incubator at 37° C. for 72 hours.
(§4) Thereafter, 20 μL of MTS solution (CellTiter™ 96 Aqueous One Solution Cell Proliferation Assay, Product No.: G3581, Promega) was dispensed into each well and mixed well, and the cells were incubated for 1 to 4 hours at 37° C. in a 5% CO2 incubator.

[2] = tested on: KM12C cells; experiment: Cytotoxicity MTS assay, KM12C; type: cell-based; settings: Homo sapiens, 72 hours
Experimental: as §1, §2, §3, §4

[3] = tested on: RON-activated KM12C colon cancer cell line; experiment: Cell killing efficacy, trypan blue exclusion assay, KM12C; type: cell-based; settings: 48 hours
Procedure, shortened: (§5)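 KM12C (MEM+10% FBS) and HT-29 (RPMI+10% FBS) cells, seeded 24 h earlier, exposed to compound at 1 μM or 5 μM for 48 h after medium change. Live and dead cells counted by trypan blue exclusion (n=2); cell death rate reported relative to a reference comparative compound.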

[4] = molecular target: T1, RON kinase (Homo sapiens, UniProt Q04912); experiment: RON kinase enzyme inhibitory activity, FRET (TR-FRET) technique; type: biochemical; settings: 60 min reaction
T1 construct: purchased Carna Bioscience
Procedure, shortened: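 RON kinase (2× stock 0.4 nM) was preincubated 15 min with compound in HEPES pH 7.5/MgCl2 buffer, then reacted 60 min at room temperature with ATP (4× stock 60 μM) and tyrosine peptide substrate (4× stock 400 nM). The reaction was stopped with EDTA plus Eu-anti-phosphotyrosine antibody and read by TR-FRET (ex 340, em 620/665 nm). IC50 came from 665 nm emission versus concentration.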

[5] = tested on: RON-mutated (Δ160) HT-29 colon cancer cell line; experiment: Cell killing efficacy, trypan blue exclusion assay, HT-29; type: cell-based; settings: HT29 cell, 48 hours
Procedure, shortened: as §5

T1 sequence (Q04912 25-1400): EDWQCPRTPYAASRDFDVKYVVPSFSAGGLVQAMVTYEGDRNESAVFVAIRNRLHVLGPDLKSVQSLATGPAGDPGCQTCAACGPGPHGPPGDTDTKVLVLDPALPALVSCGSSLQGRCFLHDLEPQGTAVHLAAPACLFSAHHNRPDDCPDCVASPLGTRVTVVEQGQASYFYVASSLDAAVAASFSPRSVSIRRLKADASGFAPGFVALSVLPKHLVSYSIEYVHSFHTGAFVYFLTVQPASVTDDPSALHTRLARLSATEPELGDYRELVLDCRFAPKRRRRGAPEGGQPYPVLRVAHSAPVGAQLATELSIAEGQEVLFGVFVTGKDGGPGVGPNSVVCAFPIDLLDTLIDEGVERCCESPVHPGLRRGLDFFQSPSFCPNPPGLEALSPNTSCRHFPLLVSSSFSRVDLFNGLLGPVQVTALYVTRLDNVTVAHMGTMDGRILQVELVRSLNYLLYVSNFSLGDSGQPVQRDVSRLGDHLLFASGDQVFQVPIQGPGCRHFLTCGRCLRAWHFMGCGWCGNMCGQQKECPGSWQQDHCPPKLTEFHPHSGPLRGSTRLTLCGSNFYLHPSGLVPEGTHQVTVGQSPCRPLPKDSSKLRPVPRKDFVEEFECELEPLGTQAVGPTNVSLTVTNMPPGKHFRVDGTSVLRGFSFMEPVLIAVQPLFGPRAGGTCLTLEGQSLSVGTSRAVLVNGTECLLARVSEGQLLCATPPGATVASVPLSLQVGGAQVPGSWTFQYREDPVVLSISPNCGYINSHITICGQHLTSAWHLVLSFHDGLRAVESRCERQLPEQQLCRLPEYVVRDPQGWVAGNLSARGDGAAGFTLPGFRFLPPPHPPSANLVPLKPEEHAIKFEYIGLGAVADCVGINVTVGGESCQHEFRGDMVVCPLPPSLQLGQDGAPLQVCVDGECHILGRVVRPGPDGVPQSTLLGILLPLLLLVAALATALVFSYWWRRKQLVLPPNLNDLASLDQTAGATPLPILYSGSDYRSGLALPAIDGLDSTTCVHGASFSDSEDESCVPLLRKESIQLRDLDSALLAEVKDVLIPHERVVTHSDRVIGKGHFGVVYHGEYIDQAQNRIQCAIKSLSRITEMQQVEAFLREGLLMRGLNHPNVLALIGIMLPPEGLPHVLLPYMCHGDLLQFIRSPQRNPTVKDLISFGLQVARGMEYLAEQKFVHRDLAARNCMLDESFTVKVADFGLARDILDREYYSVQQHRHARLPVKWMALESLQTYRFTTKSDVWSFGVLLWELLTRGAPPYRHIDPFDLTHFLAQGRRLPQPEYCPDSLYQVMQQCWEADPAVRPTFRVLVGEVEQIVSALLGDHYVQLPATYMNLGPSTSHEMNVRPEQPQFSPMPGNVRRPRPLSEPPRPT

For CCOc1ccn(-c2ccc(F)cc2)c(=O)c1C(=O)Nc1ccc(Oc2ccnc3cc(-c4ccc(CN5CCN(C)CC5)cn4)sc23)c(F)c1.Cl [Example 33, 4-ethoxy-N-{3-fluoro-4-[(2-{5-[(4-methylpiperazin-1-yl)methyl]pyridin-2-yl}thieno[3,2-b]pyridin-7-yl)oxy]phenyl}-1-(4-fluorophenyl)-2-oxo-1,2-dihydropyridine-3-carboxamide Hydrochloride], the IC50 [1] was 335 nM, the IC50 [2] was 9 nM and the “Cell death rate (Relative to Comp. Ex. 1)” value ([3]; 1 μM) was “x 1.99”. The “Cell death rate (Relative to Comp. Ex. 1)” value ([3]; 5 μM) was “x 2.13”, the IC50 [4] was 0.26 nM and the “Cell death rate (Relative to Comp. Ex. 1)” value ([5]; 1 μM) was “x 2.01”. The “Cell death rate (Relative to Comp. Ex. 1)” value ([5]; 5 μM) was “x 1.50”.
